Laboratory results as given in patent US10544095B2 (Pfizer Inc., priority 2015, dated 2020).

target: hTDO2 in human glioblastoma A172 cells (Homo sapiens (Human), UniProt P48775); assay: Cellular assay for TDO2 activity determination in A172 cells; format: cell-based; settings: overnight incubation, kynurenine absorbance at 480 nm
Protocol: The compounds of formula I inhibit the activity of human TDO2 in cells that constitutively express TDO2, such as A172 cells. A172 is a cell line derived from human brain glioblastoma cells. The cells are available from the American Type Culture Collection (ATCC®) as CRL-1620™.
The assay (adapted from Pilotte L et al., Proc Natl Acad Sci USA, 2012, 109(7), 2497-502) was performed in 96-well flat bottom plates seeded with human glioblastoma A172 cells, naturally expressing hTDO2 (prepared as described in Tilman et al., Mol Cancer, 2007, 17(6), 80), at a concentration of 1.25×10^4 cells/well in a final volume of 200 μL. To determine TDO, the cells were incubated overnight at 37° C. at 5% CO2 in IMDM (Invitrogen) supplemented with 2% FBS and 2% penicillin/streptomycin in the presence of the compounds of the present invention, at different concentrations.
The plates were then centrifuged 5 min at 1000 rpm, and 100 μL of the supernatant were collected in a conical plate, 30 μL of TCA 30% were added and a further centrifuged at 3000×g for 10 minutes. 100 μL of the supernatant were collected in a flat bottomed plate and 100 μL of 2% (w/v) 4-(dimethylamino)-benzaldehyde in acetic acid and incubated for 5 min at room temperature. Kynurenine concentrations were determined by measuring the absorbance at 480 nm. A standard curve was made with pure kynurenine. The TDO activity was measured as described above using ten serial concentrations of the compounds of the present invention. Data were fitted using the Prism™ software (GraphPad Software, Inc.) using standard parameters.

hTDO2 in human glioblastoma A172 cells, sequence (P48775 whole entry): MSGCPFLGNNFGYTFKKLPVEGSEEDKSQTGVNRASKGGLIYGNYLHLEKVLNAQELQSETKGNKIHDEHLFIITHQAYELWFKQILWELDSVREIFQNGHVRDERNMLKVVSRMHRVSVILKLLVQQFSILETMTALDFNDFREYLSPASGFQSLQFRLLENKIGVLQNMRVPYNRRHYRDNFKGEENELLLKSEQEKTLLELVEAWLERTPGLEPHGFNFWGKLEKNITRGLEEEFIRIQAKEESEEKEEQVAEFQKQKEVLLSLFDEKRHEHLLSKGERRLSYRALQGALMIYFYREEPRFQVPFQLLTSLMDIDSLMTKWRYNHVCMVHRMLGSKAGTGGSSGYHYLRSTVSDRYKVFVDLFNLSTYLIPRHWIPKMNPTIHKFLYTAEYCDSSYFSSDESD

IC50 [nM] | SMILES
1040 | CNCCCN1CCN(S(=O)(=O)c2ccc(-c3c[nH]c4cc(F)ccc34)cc2)CC1=O [Example 153, 4-((4-(6-fluoro-1H-indol-3-yl)phenyl)sulfonyl)-1-(3-(methylamino)propyl)piperazin-2-one]
120 | NS(=O)(=O)c1ccc(-c2c[nH]c3cc(F)ccc23)cc1CCO [Example 139, 4-(6-fluoro-1H-indol-3-yl)-2-(2-hydroxyethyl)-benzenesulfonamide]
93500 | O=S(=O)(c1ccc(-c2c[nH]c3cc(F)ccc23)cc1)N1CC[C@@H](O)[C@@H](O)C1 [Example 128, (3S,4R)-1-((4-(6-fluoro-1H-indol-3-yl)phenyl)sulfonyl)piperidine-3,4-diol]
92000 | O=S(=O)(c1ccc(-c2c[nH]c3cc(F)ccc23)cc1)N1C[C@H](F)[C@@H](O)[C@H](O)[C@H]1CO [Example 129, (2R,3R,4S,5S)-5-f1uoro-1-((4-(6-fluoro-1H-indol-3-yl)phenyl)sulfonyl)-2-(hydroxymethyl) piperidine-3,4-diol]
89 | O=S(=O)(c1ccc(-c2c[nH]c3cc(F)ccc23)cc1)N1CCOCC(O)C1 (stereo not shown) [Example 118, 4-((4-(6-fluoro-1H-indol-3-yl)phenyl)sulfonyl)-1,4-oxazepan-6-ol]
283 | O=S(=O)(NCCO)c1ccc(-c2c[nH]c3cc(F)ccc23)c(Cl)c1 [Example 158, 3-chloro-4-(6-fluoro-1H-indol-3-yl)-N-(2-hydroxyethyl) benzenesulfonamide]
210 | CN(C)C(=O)CCNS(=O)(=O)c1ccc(-c2c[nH]c3cc(F)ccc23)cc1 [Example 49, 3-(4-(6-fluoro-1H-indol-3-yl)phenylsulfonamido)-N,N-dimethylpropanamide]
170 | O=S(=O)(c1ccc(-c2c[nH]c3cc(F)ccc23)cc1)N1CC(CO)C1 [Example 63, (1-((4-(6-fluoro-1H-indol-3-yl)phenyl)sulfonyl)-azetidin-3-yl)methanol]
190 | C[C@@H]1CN(S(=O)(=O)c2ccc(-c3c[nH]c4cc(F)ccc34)cc2)C[C@@H](C)N1 [Example 14, (3R,5R)-3-[4-(3,5-dimethyl-piperazine-1-sulfonyl)-phenyl]-6-fluoro-1H-indole]
3500 | NCCNS(=O)(=O)c1ccc(F)c(-c2c[nH]c3cc(F)ccc23)c1 [Example 62, N-(2-aminoethyl)-4-fluoro-3-(6-fluoro-1H-indol-3-yl)benzene-sulfonamide]
210 | NC(=O)CCCNS(=O)(=O)c1ccc(-c2c[nH]c3cc(F)ccc23)cc1 [Example 53, 4-(4-(6-fluoro-1H-indol-3-yl)phenylsulfonamido)butanamide]
440 | O=c1[nH]nc(CCNS(=O)(=O)c2ccc(-c3c[nH]c4cc(F)ccc34)cc2)o1 [Example 48, 4-(6-fluoro-1H-indol-3-yl)-N-(2-(5-oxo-4,5-dihydro-1,3,4-oxadiazol-2-yl)ethyl)benzenesulfonamide]
91000 | Cn1cc(CN(CCO)S(=O)(=O)c2ccc(-c3c[nH]c4cc(F)ccc34)cc2)cn1 [Example 114, 4-(6-fluoro-1H-indol-3-yl)-N-(2-hydroxyethyl)-N-((1-methyl-1H-pyrazol-4-yl)methyl) benzenesulfonamide]
250 | O=S(=O)(c1ccc(-c2c[nH]c3ccccc23)cc1)N1CCNCC1 [Example 20, 3-(4-(piperazin-1-ylsulfonyl)phenyl)-1H-indole]
580 | CC(=O)n1cc(-c2ccc(S(=O)(=O)N3CCNCC3)cc2)c2ccc(F)cc21 [Example 70, 1-(6-fluoro-3-(4-(piperazin-1-ylsulfonyl)phenyl)-1H-indol-1-yl)ethanone]
3700 | N#Cc1cc(S(=O)(=O)N2CCNCC2)ccc1-c1c[nH]c2cc(F)ccc12 [Example 37, 2-(6-fluoro-1H-indol-3-yl)-5-(piperazin-1-ylsulfonyl)benzonitrile]
250 | N[C@@H]1CN(S(=O)(=O)c2ccc(-c3c[nH]c4cc(F)ccc34)cc2)C[C@H]1F [Example 82, (3R,4R)-4-fluoro-1-{[4-(6-fluoro-1H-indol-3-yl)phenyl]sulfonyl}pyrrolidin-3-amine]
41 | NC(=O)CCNS(=O)(=O)c1ccc(-c2c[nH]c3cc(F)ccc23)cc1CO [Example 167, 3-((4-(6-fluoro-1H-indol-3-yl)-2-(hydroxymethyl)-phenyl)sulfonamido)propanamide]
169 | CN(CC(O)c1ncc[nH]1)S(=O)(=O)c1ccc(-c2c[nH]c3cc(F)ccc23)cc1 (stereo not shown) [Example 133, 4-(6-fluoro-1H-indol-3-yl)-N-(2-hydroxy-2-(1H-imidazol-2-yl)ethyl)-N-methylbenzene-sulfonamide]

IC50 [nM] | SMILES
240 | O=C(CCNS(=O)(=O)c1ccc(-c2c[nH]c3cc(F)ccc23)cc1)N[C@H]1CCOC1 [Example 104, (−)-(S)-3-(4-(6-fluoro-1H-indol-3-yl)phenylsulfonamido)-N-(tetrahydrofuran-3-yl)propanamide]
270 | O=S(=O)(N[C@H]1CCOC1)c1ccc(-c2c[nH]c3cc(F)ccc23)cc1 [Example 64, (S)-4-(6-fluoro-1H-indol-3-yl)-N-(tetrahydrofuran-3-yl)-benzenesulfonamide]
18000 | NC(=O)n1cc(-c2ccc(S(=O)(=O)N3CCNCC3)cc2)c2ccc(F)cc21 [Example 78, 6-fluoro-3-(4-(piperazin-1-ylsulfonyl)phenyl)-1H-indole-1-carboxamide]
100 | CNS(=O)(=O)CCN(C)S(=O)(=O)c1ccc(-c2c[nH]c3cc(F)ccc23)cc1 [Example 100, 4-(6-fluoro-1H-indol-3-yl)-N-methyl-N-[2-(methylsulfamoyl)ethyl]benzenesulfonamide]
83000 | O=C1CCCN1CC1(O)CCCN(S(=O)(=O)c2ccc(-c3c[nH]c4cc(F)ccc34)cc2)C1 (stereo not shown) [Example 132, 1-((1-((4-(6-fluoro-1H-indol-3-yl)phenyl)sulfonyl)-3-hydroxypiperidin-3-yl)methyl)pyrrolidin-2-one]
5930 | CC(C)Cc1cc(-c2c[nH]c3cc(F)ccc23)ccc1S(=O)(=O)NCCC(N)=O [Example 164, 3-((4-(6-fluoro-1H-indol-3-yl)-2-isobutylphenyl)-sulfonamido)propanamide]
260 | CN1CCN(C(=O)CCNS(=O)(=O)c2ccc(-c3c[nH]c4cc(F)ccc34)cc2)CC1 [Example 103, 4-(6-fluoro-1H-indol-3-yl)-N-(3-(4-methylpiperazin-1-yl)-3-oxopropyl) benzenesulfonamide]
220 | O=S(=O)(c1ccc(-c2c[nH]c3cc(F)ccc23)cc1F)N1CCNCC1 [Example 28, 6-fluoro-3-(3-fluoro-4-(piperazin-1-ylsulfonyl)-phenyl)-1H-indole]
365 | CNCCN1CCN(S(=O)(=O)c2ccc(-c3c[nH]c4cc(F)ccc34)cc2)CC1=O [Example 150, 4-((4-(6-fluoro-1H-indol-3-yl)phenyl)sulfonyl)-1-(2-(methylamino)ethyl) piperazin-2-one]
7100 | CNC(=O)c1cc(-c2c[nH]c3cc(F)ccc23)ccc1S(=O)(=O)N1CCNCC1 [Example 57, 5-(6-fluoro-1H-indol-3-yl)-N-methyl-2-(piperazin-1-ylsulfonyl)-benzamide]
220 | Cc1nc(CCNS(=O)(=O)c2ccc(-c3c[nH]c4cc(F)ccc34)cc2)c[nH]1 [Example 161, 4-(6-fluoro-1H-indol-3-yl)-N-(2-(2-methyl-1H-imidazol-4-yl)ethyl)benzenesulfonamide]
170 | O=C(NCCNS(=O)(=O)c1ccc(-c2c[nH]c3cc(F)ccc23)cc1)N1CCOCC1 [Example 108, N-(2-(4-(6-fluoro-1H-indol-3-yl)phenylsulfonamido)ethyl)-morpholine 4-carboxamide]
9100 | CNC(=O)n1cc(-c2ccc(S(=O)(=O)N3CCNCC3)cc2)c2ccc(F)cc21 [Example 60, 6-fluoro-N-methyl-3-(4-(piperazin-1-ylsulfonyl)phenyl)-1H-indole-1-carboxamide]
220 | C[C@H]1CN(S(=O)(=O)c2ccc(-c3c[nH]c4cc(F)ccc34)cc2)C[C@H](C)N1 [Example 15, 3-(4-(((3S,5S)-3,5-dimethylpiperazin-1-yl)sulfonyl)phenyl)-6-fluoro-1H-indole]
7510 | NS(=O)(=O)c1cc(Cl)c(-c2c[nH]c3cc(F)ccc23)c(Cl)c1 [Example 137, 3,5-dichloro-4-(6-fluoro-H-indol-3-yl)-benzenesulfonamide]
380 | O=S(=O)(c1c(F)cc(-c2c[nH]c3cc(F)ccc23)cc1F)N1CCNCC1 [Example 75, 3-(3,5-difluoro-4-(piperazin-1-ylsulfonyl)phenyl)-6-fluoro-1H-indole]
2220 | CC(C)c1cc(-c2c[nH]c3cc(F)ccc23)ccc1S(=O)(=O)NCCC(N)=O [Example 163, 3-((4-(6-fluoro-1H-indol-3-yl)-2-isopropylphenyl)-sulfonamido) propanamide]
90000 | Cc1nccn1CC1(O)CCN(S(=O)(=O)c2ccc(-c3c[nH]c4cc(F)ccc34)cc2)C1 (stereo not shown) [Example 131, 1-((4-(6-fluoro-1H-indol-3-yl)phenyl)sulfonyl)-3-((2-methyl-1H-imidazol-1-yl)methyl)pyrrolidin-3-ol]
